The experiment deals with P388 leukemia ip, CD2F1 mice, survival T/C. The experiment in a line: NCI In Vivo Anticancer Drug Screen. Data for tumor model P388 Leukemia (intraperitoneal) in CD2F1 (CDF1) mice. The note with it: endpoint: median survival time, higher = longer survival. The method in brief:
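Mice carrying the transplanted tumor received test compound or vehicle. Survival was recorded in each group, and the value is the treated-group measurement divided by that of the vehicle-treated control group.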

Where [1] appears, read: dose: 25.0 mg/kg/injection, schedule: Q04DX003 (ip), vehicle: saline with Tween-80.
[2] abbreviates: dose: 50.0 mg/kg/injection, schedule: Q04DX003 (ip), vehicle: saline with Tween-80.
The mark [3] stands for this setting: dose: 100.0 mg/kg/injection, schedule: Q04DX003 (ip), vehicle: saline with Tween-80.
Setting [4] is: dose: 25.0 mg/kg/injection, schedule: Q01DX005 (ip), vehicle: distilled water + Tween-80.
Setting [5] is: dose: 60.0 mg/kg/injection, schedule: Q01DX005 (ip), vehicle: saline with Tween-80.
[6] abbreviates: dose: 120.0 mg/kg/injection, schedule: Q01DX005 (ip), vehicle: saline with Tween-80.
Setting [7] is: dose: 240.0 mg/kg/injection, schedule: Q01DX005 (ip), vehicle: saline with Tween-80.
Setting [8] is: dose: 50.0 mg/kg/injection, schedule: Q01DX009 (ip), vehicle: saline with Tween-80.
Where [9] appears, read: dose: 100.0 mg/kg/injection, schedule: Q01DX009 (ip), vehicle: saline with Tween-80.
Setting [10] is: dose: 100.0 mg/kg/injection, schedule: Q04DX002 (ip), vehicle: saline.
The mark [11] stands for this setting: dose: 200.0 mg/kg/injection, schedule: Q04DX002 (ip), vehicle: saline.
The mark [12] stands for this setting: dose: 200.0 mg/kg/injection, schedule: Q01DX009 (ip), vehicle: saline with Tween-80.

“And” between values parts separate entries of the source, which are not always exact repeats. Identical values can stand only once. Inconclusive results and toxic doses are left out.

Turning to `NC(=S)c1cncnc1N`, the T/C runs as follows: under setting [1], 102 % of control; under setting [2], 99 % of control; under setting [3], 104 % of control.
For the compound `CCN(C(=O)CCl)C(C)(C)C(SSSC(c1ccc(Cl)cc1)C(C)(C)N(CC)C(=O)CCl)c1ccc(Cl)cc1` (stereo not given), the T/C is, setting by setting: (dose: 50.0 mg/kg/injection, schedule: Q04DX003 (ip), vehicle: saline) 104 % of control; (dose: 100.0 mg/kg/injection, schedule: Q04DX003 (ip), vehicle: saline) 113 % of control; (dose: 200.0 mg/kg/injection, schedule: Q04DX003 (ip), vehicle: saline) 109 % of control.
For `C=C1C2CCC3C(CCC4C35CCC[C@]4(C)CN3CCO[C@H]35)(C2)[C@@H]1O` (stereo not given in full), the T/C (dose: 4.0 mg/kg/injection, schedule: Q01DX009 (ip), vehicle: Klucel (hydroxypropylcellulose) (HPC)) was 108 % of control; the T/C (dose: 8.0 mg/kg/injection, schedule: Q01DX009 (ip), vehicle: Klucel (hydroxypropylcellulose) (HPC)) is 110 % of control; the T/C (dose: 16.0 mg/kg/injection, schedule: Q01DX009 (ip), vehicle: Klucel (hydroxypropylcellulose) (HPC)) is 94 % of control; the T/C (dose: 32.0 mg/kg/injection, schedule: Q01DX009 (ip), vehicle: Klucel (hydroxypropylcellulose) (HPC)) is 99 % of control.
Regarding `CC(=O)CCC(=O)c1ccoc1`, the T/C runs as follows: (dose: 3.12 mg/kg/injection, schedule: Q01DX005 (ip), vehicle: Klucel (hydroxypropylcellulose) (HPC)) 94 % of control; (dose: 6.25 mg/kg/injection, schedule: Q01DX005 (ip), vehicle: Klucel (hydroxypropylcellulose) (HPC)) 103 % of control; (dose: 12.5 mg/kg/injection, schedule: Q01DX005 (ip), vehicle: Klucel (hydroxypropylcellulose) (HPC)) 100 % of control; (dose: 25.0 mg/kg/injection, schedule: Q01DX005 (ip), vehicle: Klucel (hydroxypropylcellulose) (HPC)) 102 % of control and 95 % of control.
For `COP1(=O)OC(C)=C(C)c2cccn21` (stereo not given), the T/C reads like this: under setting [1], 103 % of control; under setting [2], 106 % of control; under setting [3], 99 % of control and 96 % of control.
For `NC1=C(N2CC2)C(=O)C(N)=C(N2CC2)C1=O`, the T/C by setting is: (dose: 0.05 mg/kg/injection, schedule: Q01DX009 (ip), vehicle: saline) 177 % of control; (dose: 0.1 mg/kg/injection, schedule: Q01DX009 (ip), vehicle: saline) 187 % of control and 223 % of control; (dose: 0.2 mg/kg/injection, schedule: Q01DX009 (ip), vehicle: saline) 256 % of control; (dose: 0.3 mg/kg/injection, schedule: Q01DX009 (ip), vehicle: saline) 225 % of control.
As for `Cc1ccc(NCCC2CCCN3CCCCC23)c2c(=O)c3ccccc3sc12` (stereo not given), the T/C by setting is: (dose: 12.5 mg/kg/injection, schedule: Q01DX005 (ip), vehicle: distilled water + Tween-80) 100 % of control; under setting [4], 91 % of control.
Turning to `O=C(N/N=C/c1ccccc1Cl)c1cccnc1`, the T/C under setting [5] is 90 % of control, the T/C under setting [6] is 93 % of control and the T/C under setting [7] is 89 % of control.
Regarding `CCC(N)Cc1cc(OC)c(C)cc1OC` (stereo not given), the T/C (dose: 25.0 mg/kg/injection, schedule: Q01DX009 (ip), vehicle: saline with Tween-80) is 90 % of control; the T/C under setting [8] was 98 % of control and 99 % of control; the T/C under setting [9] is 103 % of control.
For `COc1nc2nc(Cl)cc(C)c2c2ccccc12` (tested in a mixture with another compound), the T/C is 104 % of control (dose: 50.0 mg/kg/injection, schedule: Q01DX005 (ip), vehicle: saline with Tween-80); 104 % of control (dose: 100.0 mg/kg/injection, schedule: Q01DX005 (ip), vehicle: saline with Tween-80); 92 % of control (dose: 200.0 mg/kg/injection, schedule: Q01DX005 (ip), vehicle: saline with Tween-80).
As to `CCOC(=O)C1(CO)C(=O)Nc2ccccc21` (stereo not given), the T/C (dose: 50.0 mg/kg/injection, schedule: Q01DX009 (ip), vehicle: Klucel (hydroxypropylcellulose) (HPC)) is 110 % of control; the T/C (dose: 100.0 mg/kg/injection, schedule: Q01DX009 (ip), vehicle: Klucel (hydroxypropylcellulose) (HPC)) is 106 % of control; the T/C (dose: 200.0 mg/kg/injection, schedule: Q01DX009 (ip), vehicle: Klucel (hydroxypropylcellulose) (HPC)) was 107 % of control.
For `COC12C=CC(CC1)C1C(=O)C=CC(=O)C12` (stereo not given), the T/C is, setting by setting: under setting [5], 105 % of control; under setting [6], 105 % of control; under setting [7], 112 % of control.
Take `CC1CCCN2C(=O)CN(N3CCOCC3)CC(=O)N12` (stereo not given): the T/C is 100 % of control (dose: 25.0 mg/kg/injection, schedule: Q04DX002 (ip), vehicle: saline with Tween-80); 95 % of control (dose: 25.0 mg/kg/injection, schedule: Q04DX002 (ip), vehicle: saline); 94 % of control (dose: 50.0 mg/kg/injection, schedule: Q04DX002 (ip), vehicle: saline with Tween-80); 95 % of control (dose: 50.0 mg/kg/injection, schedule: Q04DX002 (ip), vehicle: saline); 99 % of control (dose: 100.0 mg/kg/injection, schedule: Q04DX002 (ip), vehicle: saline with Tween-80); 102 % of control under setting [10]. Besides, the T/C is 94 % of control (dose: 200.0 mg/kg/injection, schedule: Q04DX002 (ip), vehicle: saline with Tween-80) and 94 % of control under setting [11].
Take `COc1cccc2c1C(=O)c1c(O)c3c(c(O)c1C2=O)CC(O)(C(C)NCCN(C)C)CC3OC1CC(N)C(O)C(C)O1` (stereo not given): the T/C (dose: 0.63 mg/kg/injection, schedule: Q01DX009 (ip), vehicle: water) was 103 % of control; the T/C (dose: 1.25 mg/kg/injection, schedule: Q01DX009 (ip), vehicle: water) is 106 % of control; the T/C (dose: 2.5 mg/kg/injection, schedule: Q01DX009 (ip), vehicle: other) is 121 % of control; the T/C (dose: 20.0 mg/kg/injection, schedule: Q01DX009 (ip), vehicle: other) was 153 % of control; the T/C (dose: 40.0 mg/kg/injection, schedule: Q01DX009 (ip), vehicle: other) was 157 % of control.
`[CH3][Sn]1([CH3])[O]C(=O)C(=O)[O]1`: the T/C runs as follows: (dose: 6.25 mg/kg/injection, schedule: Q01DX001 (ip), vehicle: Klucel (hydroxypropylcellulose) (HPC)) 105 % of control; (dose: 12.5 mg/kg/injection, schedule: Q01DX001 (ip), vehicle: Klucel (hydroxypropylcellulose) (HPC)) 102 % of control; (dose: 25.0 mg/kg/injection, schedule: Q01DX001 (ip), vehicle: Klucel (hydroxypropylcellulose) (HPC)) 101 % of control.
Regarding `OC1C=CC2CCC1C2` (stereo not given), the T/C runs as follows: under setting [8], 107 % of control; under setting [9], 114 % of control; under setting [12], 115 % of control.
For the compound `CN(C)CCOCC(O)(c1ccccc1)c1ccccc1`, the T/C (dose: 50.0 mg/kg/injection, schedule: Q01DX009 (ip), vehicle: suspension in saline) is 100 % of control and the T/C (dose: 100.0 mg/kg/injection, schedule: Q01DX009 (ip), vehicle: suspension in saline) is 103 % of control.
As for `O=[N+]([O-])CC(OCCCCO)C(Cl)(Cl)Cl` (stereo not given), the T/C under setting [8] is 101 % of control, the T/C under setting [9] is 96 % of control and the T/C under setting [12] is 87 % of control.
Regarding `CN(C)CCN(C)CCN1C(=O)c2ccccc2C1=O`, the T/C runs as follows: under setting [10], 102 % of control; under setting [11], 100 % of control; (dose: 400.0 mg/kg/injection, schedule: Q04DX002 (ip), vehicle: saline) 100 % of control.
For `O=c1c2ccccc2sc2c1c(N(CCO)CCO)cc1ccccc12`, the T/C under setting [4] was 102 % of control; the T/C (dose: 50.0 mg/kg/injection, schedule: Q01DX005 (ip), vehicle: distilled water + Tween-80) was 97 % of control; the T/C (dose: 100.0 mg/kg/injection, schedule: Q01DX005 (ip), vehicle: distilled water + Tween-80) is 92 % of control.
Take `N#CC(C(=O)CCCC(=O)Nc1ccccc1[N+](=O)[O-])c1ccc(Cl)cc1Cl` (stereo not given): the T/C is 106 % of control under setting [5], 104 % of control under setting [6] and 101 % of control under setting [7].
Take `CCCC1CC[N-]CC1.CCCC1CC[N-]CC1.CCCC1CC[N-]CC1.CCCC1CC[N-]CC1.CS(C)=O.CS(C)=O.[Cl-].[Cl-].[Cl-].[Cl-].[Cl][Rh][Cl].[Rh+3]`: the T/C by setting is: (dose: 3.13 mg/kg/injection, schedule: Q01DX009 (ip), vehicle: saline) 117 % of control; (dose: 12.5 mg/kg/injection, schedule: Q01DX009 (ip), vehicle: saline with Tween-80) 123 % of control.
For the compound `Cc1nc2[nH]c(=O)[nH]c(=O)c2[nH]1`, the T/C is 100 % of control under setting [3] and 113 % of control (dose: 200.0 mg/kg/injection, schedule: Q04DX003 (ip), vehicle: saline with Tween-80).

The record behind these values is PubChem BioAssay AID330 (DTP/NCI, 2004).
